Experimental data as given in patent US20090227619A1, “Harmine derivatives, intermediates used in their preparations, preparation processes and use therefo” (priority 2003, published 2009).
Values belong to the compound of their own block, whether it stands above or below them.

What was measured:
[1] = system: NIH3T3; assay: In vitro cytotoxicity, IC50 by MTT method, NIH3T3; format: cell-based; settings: Mus musculus; NIH3T3 cell strain; read-out: IC50 NIH3T3
Method in brief: (§1)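 Cells in RPMI1640 with 10% FBS at 37° C, 5% CO2 were seeded at 10^5/ml and exposed to a compound concentration gradient for 48 h, at least three replicates, solvent controls.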

[2] = system: Lovo; assay: In vitro cytotoxicity, IC50 by MTT method, Lovo; format: cell-based; settings: Homo sapiens; Lovo cell strain; read-out: IC50 Lovo
Method in brief: as §1

[3] = system: HepG2; assay: In vitro cytotoxicity, IC50 by MTT method, HepG2; format: cell-based, human; settings: Homo sapiens; HepG2 cell strain; read-out: IC50 HepG2
Method in brief: as §1

[4] = system: Bel-7402; assay: In vitro cytotoxicity, IC50 by MTT method, Bel-7402; format: cell-based; settings: Homo sapiens, Bel-7402; Bel7402 cell strain; read-out: IC50 Bel7402
Method in brief: as §1

[5] = system: Hela; assay: In vitro cytotoxicity, IC50 by MTT method, Hela; format: cell-based; settings: Homo sapiens; Hela cell strain; read-out: IC50 Hela
Method in brief: as §1

[6] = system: PLA-801; assay: In vitro cytotoxicity, IC50 by MTT method, PLA-801; format: cell-based; settings: PLA-801 cell strain; read-out: IC50 PLA-801
Method in brief: as §1

[7] = system: BGC-823; assay: In vitro cytotoxicity, IC50 by MTT method, BGC-823; format: cell-based; settings: Homo sapiens, BGC-823; BGC823 cell strain; read-out: IC50 BGC823
Method in brief: as §1

SMILES: Cc1nc(C(=O)O)cc2c3ccccc3n(CCCc3ccccc3)c12 [Compound 65, 9-phenylpropyl-1-methyl-β-carboline-3-carboxylic acid]
IC50 [1]: 110 µM
IC50 [2]: 50 µM
IC50 [3]: 140 µM
melting point: 186 to 188 °C
IC50 [4]: 560 µM
IC50 [5]: 220 µM
IC50 [6]: 210 µM
IC50 [7]: 270 µM

SMILES: CCOC(=O)c1cc2c3ccccc3n(CCCc3ccccc3)c2cn1 [Compound 45, ethyl 9-phenylpropyl-β-carboline-3-carboxylate]
IC50 [1]: > 3000 µM
IC50 [2]: > 3000 µM
IC50 [3]: > 3000 µM
melting point: 140 to 142 °C
IC50 [4]: 387 µM
IC50 [5]: > 3000 µM
IC50 [6]: > 3000 µM
IC50 [7]: > 3000 µM

SMILES: CCOC(=O)c1cc2c3ccccc3n(CCCc3ccccc3)c2c(C)n1 [Compound 59, ethyl 9-phenylpropyl-1-methyl-β-carboline-3-carboxylate]
IC50 [1]: 30 µM
IC50 [2]: 20 µM
IC50 [3]: 40 µM
melting point: 101 to 102 °C
IC50 [4]: 180 µM
IC50 [5]: 40 µM
IC50 [6]: 110 µM
IC50 [7]: 40 µM

SMILES: CCCc1nc(C(=O)OCC)cc2c3ccccc3n(CCCc3ccccc3)c12 [Compound 71, ethyl 9-phenylpropyl-1-propyl-β-carboline-3-carboxylate]
IC50 [1]: 190 µM
IC50 [2]: 60 µM
IC50 [3]: 120 µM
melting point: 92 to 93 °C
IC50 [4]: 910 µM
IC50 [5]: 60 µM
IC50 [6]: 260 µM
IC50 [7]: 1320 µM

SMILES: CCOC(=O)c1cc2c3ccccc3n(C)c2cn1 [Compound 30, ethyl 9-methyl-β-carboline-3-carboxylate]
IC50 [1]: 100 µM
IC50 [2]: 100 µM
IC50 [3]: 150 µM
melting point: 139 to 140 °C
IC50 [4]: 140 µM
IC50 [5]: 180 µM
IC50 [6]: 120 µM
IC50 [7]: 150 µM

Now from value to compound, other results behind:

melting point: 243 to 245 °C
SMILES: CCn1c2ccccc2c2cc(C(=O)O)nc(C)c21 [Compound 63, 9-ethyl-1-methyl-β-carboline-3-carboxylic acid]
IC50 [1]: 710 µM
IC50 [2]: 590 µM
IC50 [3]: 2800 µM
IC50 [4]: 1820 µM
IC50 [5]: 970 µM
IC50 [6]: 2330 µM
IC50 [7]: 1660 µM

melting point: 96 to 98 °C
SMILES: CCOC(=O)c1cc2c3ccccc3n(CC)c2c(C)n1 [Compound 57, ethyl 9-ethyl-1-methyl-β-carboline-3-carboxylate]
IC50 [1]: 60 µM
IC50 [2]: 50 µM
IC50 [3]: 80 µM
IC50 [4]: 880 µM
IC50 [5]: 60 µM
IC50 [6]: 160 µM
IC50 [7]: 70 µM

melting point: 213 to 214 °C
SMILES: CCn1c2ccccc2c2cc(NC(=O)OC)ncc21 [Compound 53, 9-ethyl-3-[(methoxycarbonyl)amino]-β-carboline]
IC50 [1]: > 3000 µM
IC50 [2]: > 3000 µM
IC50 [3]: > 3000 µM
IC50 [4]: > 3000 µM
IC50 [5]: > 3000 µM
IC50 [6]: > 3000 µM
IC50 [7]: > 3000 µM

melting point: 262 to 264 °C
SMILES: Cc1nc(C(=O)O)cc2c3ccccc3n(C)c12 [Compound 62, 1,9-dimethyl-β-carboline-3-carboxylic acid]
IC50 [1]: 630 µM
IC50 [2]: 440 µM
IC50 [3]: 1380 µM
IC50 [4]: 1500 µM
IC50 [5]: 1110 µM
IC50 [6]: 2350 µM
IC50 [7]: 640 µM

melting point: 181 to 183 °C
SMILES: CCCc1nc(C(=O)O)cc2c3ccccc3n(C)c12 [Compound 72, 9-methyl-1-propyl-β-carboline-3-carboxylic acid]
IC50 [1]: 570 µM
IC50 [2]: 210 µM
IC50 [3]: 1170 µM
IC50 [4]: > 3000 µM
IC50 [5]: 960 µM
IC50 [6]: 1400 µM
IC50 [7]: 540 µM

melting point: 205 to 207 °C
SMILES: COC(=O)c1cc2c3ccccc3n(C)c2c(-c2ccccc2)n1 [Compound 76, methyl 1-phenyl-9-methyl-β-carboline-3-carboxylate]
IC50 [1]: > 3000 µM
IC50 [2]: > 3000 µM
IC50 [3]: > 3000 µM
IC50 [4]: 620 µM
IC50 [5]: > 3000 µM
IC50 [6]: > 3000 µM
IC50 [7]: > 3000 µM
